{"source": "patent US6331636A", "about": "“Therapeutically useful 2-aminotetralin derivatives” (priority 1992, dated 2001)", "key": {"[1]": {"details": "cited from earlier work"}, "dopamine receptors": {"tested_on": "dopamine receptors", "details": "background; cited from earlier work"}, "[2]": {"details": "background, cited from earlier work"}, "5-HT receptor": {"tested_on": "5-HT receptor", "details": "J. Med. Chem., 30, 2105 (1987); cited from earlier work"}, "[3]": {"assay": "Hypothermia in mice after subcutaneous injection", "assay_type": "in vivo", "details": "Mus musculus, sc, dose depressing body temperature by 2° C. in two of four mice", "protocol": "Starting with a dose of 30 mg/kg, four mice are injected subcutaneously with test compound. Twenty minutes later, the number of animals whose body temperature has decreased by 2° C. or more are counted. […] The time for last statistically significant drug affect on mean body temperature is indicated in minutes. […] Potency is given as mg/kg ED50 (dose required to depress temperature in two of four mice) as measured by Spearman-Karber statistics."}}, "note": "Structures can show the parent of a compound that is named as a salt."}
{"compound": "COc1cccc2c1CCC(NC1CC1)C2C", "note": "(stereo not drawn) [1-methyl-2-(cyclopropylamino)-5-methoxytetralin]", "values": [{"measurement": "local anesthetic activity", "setting": "[1]; J. Pharm. Sci., 67, 880-82 (1978)", "result": "local anesthetic activity"}]}
{"compound": "CC1(C)CC(=O)N(CCCCN2CCN(c3ncccn3)CC2)C(=O)C1", "note": "[Gepirone]", "values": [{"measurement": "dopamine receptor activity", "setting": "dopamine receptors", "result": "also has dopamine antagonist properties"}, {"measurement": "anxiolytic / anti-anxiety activity", "setting": "[2]; clinical", "result": "clinically demonstrated anti-anxiety activities"}, {"measurement": "effect on depressive endpoints", "setting": "[2]; some patients", "result": "ameliorative effects on some depressive endpoints in some patients"}]}
{"compound": "CCCN(CCC)C1CCc2cccc(O)c2C1C", "note": "(stereo not drawn) [8-hydroxy-1-methyl-2-(di-n-propylamino)tetralins]", "values": [{"measurement": "5-HT receptor agonism", "setting": "5-HT receptor", "result": "5-HT receptor agonists"}]}
{"compound": "CN(C)C1CCc2ccc(O)cc2C1(C)C", "note": "(stereo not drawn) [1,1-Dimethyl-2-(N,N-dimethylamino)-7-hydroxytetralin]", "values": [{"measurement": "analgesic and intestinal activity", "setting": "[1]; Chem. Ab., 79: 146294b", "result": "analgesic and intestinal movement accelerating actions"}]}
{"compound": "O=C1CC2(CCCC2)CC(=O)N1CCCCN1CCN(c2ncccn2)CC1", "note": "[Buspirone]", "values": [{"measurement": "dopamine receptor activity", "setting": "dopamine receptors", "result": "antagonizes dopamine receptors at the same dose it stimulates 5-HT1A receptors"}]}
{"compound": "CN1CCc2cccc3c2[C@H]1Cc1ccc(O)c(O)c1-3", "note": "[apomorphine]", "values": [{"measurement": "dopamine receptor activity", "setting": "dopamine receptors", "result": "able to activate the dopamine autoreceptors as well as the post synaptic dopamine receptors"}]}
{"compound": "C=CCN[C@H]1CCc2cccc(OC)c2[C@H]1CC=C", "note": "(relative stereo) [Example 26, Compound 1, Cis-(±)-1,2,3,4-Tetrahydro-8-methoxy-N,1-di-(2-pro-penyl)-2-naphthalenamine Hydrochloride]", "values": [{"measurement": "ED50", "setting": "[3]", "result": 2.31, "unit": "mg/kg"}]}
